Results from patent publication US20230278981A1, “DICHLOROPHENOL HSD17B13 INHIBITORS AND USES THEREOF” (INIPHARM, INC., priority 2020, published 2023).

Target: HSD17B13 (Homo sapiens (Human), UniProt Q7Z5P4)
Assay: LC/MS estrone detection assay: conversion of estradiol to estrone by HSD17B13
Assay type: biochemical
Conditions: 4 μM estradiol, 6 mM NAD+, 30 nM HSD17B13 enzyme (E. coli expressed His-tagged), 2 hours at 26.5° C.
Description: The liquid chromatography/mass spectrometry (LC/MS) estrone detection assay monitors the conversion of estradiol to estrone by HSD17B13. This assay was undertaken in a 96wp format (Eppendorf deep well Plate 96/500) in an 80 μl reaction volume containing: 4 μM of Estradiol (E2; Cayman; Ser. No. 10/006,315), 6 mM NAD+(Sigma; #N0623) and 30 nM HSD17B13 enzyme (in-house; E. coli expressed His-tagged, purified, soluble protein) in a reaction containing […] potassium phosphate buffer pH 7.4, with 0.5% vehicle (DMSO). Reactions were incubated for 2 hours at 26.5° C., and estradiol (E2) conversion to estrone (E1) was quantitated by LC-MS/MS based analyte detection for both E2 and E1 using LCMS grade reagents.
Reactions were terminated by the addition of two volumes of acetonitrile (MeCN; LCMS grade; CAS #75/05/8) containing deuterated (D4)-E1 used as internal standard (Clear Synth; #CS-T-54273; 500 ng/mL final concentration). Samples were applied to pre-prepared Bond Elut-C18 extraction cartridges (3 mL; Agilent; Ser. No. 12/102,028), washed and eluted in MeCN. Eluates were dried under nitrogen and re-suspended in 60% methanol (LCMS grade methanol; CAS #67/56/1) before submission for analysis. Aqueous linearity for E2 and E1 were included for quantification.
Analysis of samples was undertaken on a XBridge BEH C18 column (Waters; #186003033) using 0.1% Diethyl Amine in MeCN (mobile phase A; DEA CAS #109-89-7) and 0.1% Diethyl Amine in milli-Q water (mobile phase B) in a 3 min gradient allowing 25% B. Analytes were detected in negative mode using MRM analysis, with E2 having a RT of 1.85 min and E1 having a RT of 2 min. Activity of the enzyme, in the absence of NAD^+, was used to evaluate specificity of conversion. Enzyme activity in the presence of test samples was expressed as a percentage of the uninhibited enzyme activity, and plotted versus inhibitor concentration. Non-linear regression was performed using a four-parameter logistic model and GraphPad Prism software (GraphPad Software, La Jolla, Calif.). All assessments were undertaken in duplicate evaluations and pooled during extraction process and subsequently injected as duplicates for LC-MS/MS analysis.

Chain of HSD17B13 (Q7Z5P4 20-300): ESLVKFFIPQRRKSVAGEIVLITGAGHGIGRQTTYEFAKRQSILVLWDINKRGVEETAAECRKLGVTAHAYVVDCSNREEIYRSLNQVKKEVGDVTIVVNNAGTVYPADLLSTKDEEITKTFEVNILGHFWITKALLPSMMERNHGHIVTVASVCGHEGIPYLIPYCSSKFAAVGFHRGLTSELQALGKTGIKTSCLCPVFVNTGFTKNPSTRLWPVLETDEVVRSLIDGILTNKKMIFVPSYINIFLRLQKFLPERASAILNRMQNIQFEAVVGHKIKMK

For `O=C(Nc1cccc2ncn(Cc3ccc(OCCO)cc3)c(=O)c12)c1cc(Cl)c(O)c(Cl)c1` [Example 58, 3,5-dichloro-4-hydroxy-N-(3-(4-(2-hydroxyethoxy)benzyl)-4-oxo-3,4-dihydroquinazolin-5-yl)benzamide], which IC50 is on record?
The IC50 was 0.1 to 0.5 µM.

How did the IC50 turn out when `CS(=O)(=O)c1ccc(Cn2cnc3cccc(NC(=O)c4cc(Cl)c(O)c(Cl)c4)c3c2=O)cc1` [Example 59, 3,5-dichloro-4-hydroxy-N-(3-(4-(methylsulfonyl)benzyl)-4-oxo-3,4-dihydroquinazolin-5-yl)benzamide] was run?
The IC50 was 1 to 10 µM.

Which IC50 does the source give for `CS(=O)(=O)c1cccc(Cn2cnc3cccc(NC(=O)c4cc(Cl)c(O)c(Cl)c4)c3c2=O)c1` [Example 60, 3,5-dichloro-4-hydroxy-N-(3-(3-(methylsulfonyl)benzyl)-4-oxo-3,4-dihydroquinazolin-5-yl)benzamide.] here?
The IC50 was 0.5 to 1 µM.

How did the IC50 turn out when `CC(C)(C)CCn1cnc2cccc(NC(=O)c3cc(Cl)c(O)c(Cl)n3)c2c1=O` [Example 61, 4,6-dichloro-N-(3-(3,3-dimethylbutyl)-4-oxo-3,4-dihydroquinazolin-5-yl)-5-hydroxypicolinamide] was run?
The IC50 was 0.1 to 0.5 µM.

Which IC50 does the source give for `CC(C)(C)n1ccc(Cn2cnc3cccc(NC(=O)c4cc(Cl)c(O)c(Cl)n4)c3c2=O)n1` [Example 62, N-(3-((1-(tert-butyl)-1H-pyrazol-3-yl)methyl)-4-oxo-3,4-dihydroquinazolin-5-yl)-4,6-dichloro-5-hydroxypicolinamide] here?
The IC50 was 0.1 to 0.5 µM.

Which IC50 does the source give for `O=C(Nc1cccc2ncn(Cc3ccc(N4CCS(=O)(=O)CC4)cc3)c(=O)c12)c1cc(Cl)c(O)c(Cl)c1` [Example 63, 3,5-dichloro-N-(3-(4-(1,1-dioxidothiomorpholino)benzyl)-4-oxo-3,4-dihydroquinazolin-5-yl)-4-hydroxybenzamide] here?
Its IC50 is 0.1 to 0.5 µM.

Which IC50 does the source give for `Cc1nc2cccc(NC(=O)c3cc(Cl)c(O)c(Cl)c3)c2c(=O)n1Cc1ccccc1OC(F)(F)F` [Example 64, 3,5-dichloro-4-hydroxy-N-(2-methyl-4-oxo-3-(2-(trifluoromethoxy)benzyl)-3,4-dihydroquinazolin-5-yl)benzamide] here?
Its IC50 is at most 0.1 µM.

Which IC50 does the source give for `O=C(Nc1cccc2ncn(Cc3cccc(OC(F)(F)F)c3)c(=O)c12)c1ccc(Cl)c(O)c1Cl` [Example 65, 2,4-dichloro-3-hydroxy-N-(4-oxo-3-(3-(trifluoromethoxy)benzyl)-3,4-dihydroquinazolin-5-yl)benzamide] here?
The IC50 was 1 to 10 µM.

For `N#Cc1ccccc1Cn1cnc2cccc(NC(=O)c3cc(Cl)c(O)c(Cl)n3)c2c1=O` [Example 66, 4,6-dichloro-N-(3-(2-cyanobenzyl)-4-oxo-3,4-dihydroquinazolin-5-yl)-5-hydroxypicolinamide], which IC50 is on record?
Its IC50 is 0.1 to 0.5 µM.

Which IC50 does the source give for `O=C(Nc1cccc2ncn(Cc3n[nH]c4ccccc34)c(=O)c12)c1cc(Cl)c(O)c(Cl)c1` [Example 67, N-(3-((1H-indazol-3-yl)methyl)-4-oxo-3,4-dihydroquinazolin-5-yl)-3,5-dichloro-4-hydroxybenzamide] here?
The IC50 was at most 0.1 µM.

How did the IC50 turn out when `N#Cc1cc(C(=O)Nc2cccc3ncn(Cc4cccc(C(F)(F)F)c4)c(=O)c23)cc(Cl)c1O` [Example 68, 3-chloro-5-cyano-4-hydroxy-N-(4-oxo-3-(3-(trifluoromethyl)benzyl)-3,4-dihydroquinazolin-5-yl)benzamide] was run?
Its IC50 is 0.1 to 0.5 µM.

With `O=C(Nc1cccnc1C(=O)NCc1ccccc1OC(F)(F)F)c1cc(Cl)c(O)c(Cl)c1` [Example 69, 3-(3,5-dichloro-4-hydroxybenzamido)-N-(2-(trifluoromethoxy)benzyl) picolinamide] as the molecule, how does the IC50 read?
The IC50 was 0.1 to 0.5 µM.

`O=C(Nc1cccc2nc(C(F)(F)F)n(Cc3ccccc3OC(F)(F)F)c(=O)c12)c1cc(Cl)c(O)c(Cl)c1` [Example 70, 3,5-dichloro-4-hydroxy-N-(4-oxo-3-(2-(trifluoromethoxy)benzyl)-2-(trifluoromethyl)-3,4-dihydroquinazolin-5-yl)benzamide] was tested. Which IC50 did it give?
Its IC50 is 0.1 to 0.5 µM.

How did the IC50 turn out when `CC(C)(C)CCNC(=O)c1ccccc1NC(=O)c1cc(Cl)c(O)c(Cl)c1` [Example 71, 3,5-dichloro-N-(2-((3,3-dimethylbutyl)carbamoyl)phenyl)-4-hydroxybenzamide] was run?
The IC50 was 0.1 to 0.5 µM.

Which IC50 does the source give for `O=C(Nc1cccc2ncn(C3(c4ccccc4F)CC3)c(=O)c12)c1cc(Cl)c(O)c(Cl)n1` [Example 72, 4,6-dichloro-N-(3-(1-(2-fluorophenyl)cyclopropyl)-4-oxo-3,4-dihydroquinazolin-5-yl)-5-hydroxypicolinamide] here?
Its IC50 is 0.1 to 0.5 µM.

Which IC50 does the source give for `O=C(Nc1cnccc1C(=O)NCc1ccccc1OC(F)(F)F)c1cc(Cl)c(O)c(Cl)c1` [Example 73, 3-(3,5-dichloro-4-hydroxybenzamido)-N-(2-(trifluoromethoxy)benzyl) isonicotinamide] here?
The IC50 was 0.1 to 0.5 µM.

`CC(c1ccccc1OC(F)(F)F)n1cnc2cccc(NC(=O)c3cc(Cl)c(O)c(Cl)c3)c2c1=O` (centres unmarked) [Example 74, 3,5-dichloro-4-hydroxy-N-(4-oxo-3-(1-(2-(trifluoromethoxy)phenyl)ethyl)-3,4-dihydroquinazolin-5-yl)benzamide] was tested. Which IC50 did it give?
Its IC50 is 0.1 to 0.5 µM.

With `O=C(Nc1cccc2ncn(Cc3ncccc3C(F)(F)F)c(=O)c12)c1cc(Cl)c(O)c(Cl)c1` [Example 75, 3,5-dichloro-4-hydroxy-N-(4-oxo-3-((3-(trifluoromethyl)pyridin-2-yl)methyl)-3,4-dihydroquinazolin-5-yl)benzamide] as the molecule, how does the IC50 read?
The IC50 was at most 0.1 µM.

With `O=C(Nc1cccc2ncn(Cc3ccn(-c4ccccc4F)n3)c(=O)c12)c1cc(Cl)c(O)c(Cl)c1` [Example 76, 3,5-dichloro-N-(3-((1-(2-fluorophenyl)-1H-pyrazol-3-yl)methyl)-4-oxo-3,4-dihydroquinazolin-5-yl)-4-hydroxybenzamide] as the molecule, how does the IC50 read?
The IC50 was at most 0.1 µM.

With `O=C(Nc1cccc2ncn(Cc3ccn(-c4ccccc4)n3)c(=O)c12)c1cc(Cl)c(O)c(Cl)c1` [Example 77, 3,5-dichloro-4-hydroxy-N-(4-oxo-3-((1-phenyl-1H-pyrazol-3-yl)methyl)-3,4-dihydroquinazolin-5-yl)benzamide] as the molecule, how does the IC50 read?
Its IC50 is 0.1 to 0.5 µM.

How did the IC50 turn out when `O=C(Nc1cccc2ncn(C(c3ccccc3)c3ccccc3)c(=O)c12)c1cc(Cl)c(O)c(Cl)c1` [Example 78, N-(3-benzhydryl-4-oxo-3,4-dihydroquinazolin-5-yl)-3,5-dichloro-4-hydroxybenzamide] was run?
Its IC50 is at most 0.1 µM.

With `CS(=O)(=O)c1ccccc1Cn1cnc2cccc(NC(=O)c3cc(Cl)c(O)c(Cl)n3)c2c1=O` [Example 79, 4,6-dichloro-5-hydroxy-N-(3-(2-(methylsulfonyl)benzyl)-4-oxo-3,4-dihydroquinazolin-5-yl)picolinamide] as the molecule, how does the IC50 read?
Its IC50 is 0.5 to 1 µM.

With `O=C(Nc1cccc2ncn(Cc3cccnc3)c(=O)c12)c1cc(Cl)c(O)c(Cl)c1` [Example 80, 3,5-dichloro-4-hydroxy-N-(4-oxo-3-(pyridin-3-ylmethyl)-3,4-dihydroquinazolin-5-yl)benzamide] as the molecule, how does the IC50 read?
The IC50 was 0.5 to 1 µM.

`O=C(Nc1ccc(Cl)c2ncn(Cc3ccccc3OC(F)(F)F)c(=O)c12)c1cc(Cl)c(O)c(Cl)c1` [Example 81, 3,5-dichloro-N-(8-chloro-4-oxo-3-(2-(trifluoromethoxy)benzyl)-3,4-dihydroquinazolin-5-yl)-4-hydroxybenzamide] was tested. Which IC50 did it give?
The IC50 was at most 0.1 µM.

`O=C(Nc1cccc2ncn(Cc3cccnc3C(F)(F)F)c(=O)c12)c1cc(Cl)c(O)c(Cl)c1` [Example 82, 3,5-dichloro-4-hydroxy-N-(4-oxo-3-((2-(trifluoromethyl)pyridin-3-yl)methyl)-3,4-dihydroquinazolin-5-yl)benzamide] was tested. Which IC50 did it give?
Its IC50 is at most 0.1 µM.

How did the IC50 turn out when `O=C(Nc1cccc2ncn(Cc3ccccc3N3CCS(=O)(=O)CC3)c(=O)c12)c1cc(Cl)c(O)c(Cl)c1` [Example 83, 3,5-dichloro-N-(3-(2-(1,1-dioxidothiomorpholino)benzyl)-4-oxo-3,4-dihydroquinazolin-5-yl)-4-hydroxybenzamide] was run?
The IC50 was 1 to 10 µM.

How did the IC50 turn out when `O=C(Nc1cccc2ncn(Cc3ccccc3N3CCOCC3)c(=O)c12)c1cc(Cl)c(O)c(Cl)c1` [Example 84, 3,5-dichloro-4-hydroxy-N-(3-(2-morpholinobenzyl)-4-oxo-3,4-dihydroquinazolin-5-yl)benzamide] was run?
The IC50 was at most 0.1 µM.

How did the IC50 turn out when `CN(C)CCOc1ccc(NC(=O)c2cc(Cl)c(O)c(Cl)c2)c(C(=O)NCc2ccccc2OC(F)(F)F)c1` [Example 85, 3,5-dichloro-N-(4-(2-(dimethylamino)ethoxy)-2-((2-(trifluoromethoxy)benzyl)carbamoyl)phenyl)-4-hydroxybenzamide] was run?
The IC50 was over 10 µM.

Which IC50 does the source give for `O=C(Nc1ccc(OCCO)cc1C(=O)NCc1ccccc1OC(F)(F)F)c1cc(Cl)c(O)c(Cl)c1` [Example 86, 3,5-dichloro-4-hydroxy-N-(4-(2-hydroxyethoxy)-2-((2-(trifluoromethoxy)benzyl)carbamoyl)phenyl)benzamide] here?
Its IC50 is 0.1 to 0.5 µM.
